Experimental data taken from article PMC4204995, “Inhibition of Influenza Virus Replication by Targeting Broad Host Cell Pathways” (PLoS ONE, 2014).
Where “and” joins values, the source holds several entries; their conditions need not be identical. Equal entries are not always repeated. Structures can show the parent of a compound that is named as a salt. Where two headings read alike, the source gives them in different places.

Tests used:
[1] = tested on: A/Puerto Rico/8/34 (H1N1); assay: microbe, parasite or virus in culture; format: cell-based, influenza A virus; settings: for EC50: read-out: EC50 values, A/Puerto Rico/8/34 (H1N1)
[2] = tested on: A/California-like/2009 (H1N1); assay: microbe, parasite or virus in culture; format: cell-based, influenza A virus
[3] = tested on: viral acidic polymerase (PA) expression, PR8 virus; format: cell-based, influenza A virus
MDCK cells [4] = assay: XTT cytotoxicity assay in MDCK cells; settings: MDCK cells; for CC50: XTT cell viability, 2 days
A/Hong Kong/X31 (H3N2) = assay: microbe, parasite or virus in culture; format: cell-based, influenza A virus; settings: read-out: EC50 values, A/Hong Kong/X31 (H3N2)
[5] = tested on: A/Swine/OTH-33-2/2009 (H1N1); format: cell-based, influenza A virus
PR8 virus = format: cell-based, influenza A virus
[6] = tested on: A/Puerto Rico/8/34 (H1N1); assay: microbe, parasite or virus in culture; format: cell-based; settings: Influenza A virus, H1N1 / PR8, Calu-3, 48 h, read-out: EC50 values
[7] = XTT cytotoxic assay in Calu-3 cells; format: cell-based; settings: human
PR8 influenza virus = format: cell-based, influenza A virus
in vitro = settings: dog
MDCK cells [8] = tested on: MDCK cells
[9] = XTT cytotoxicity assay in MDCK cells; settings: dog
[10] = Influenza A virus, H3N2, MDCK, 48 h
[11] = Influenza A virus, H1N1, MDCK, 48 h
[12] = Influenza A virus, H1N1, MDCK, 48 h, read-out: EC50 values, A/California-like/2009 (H1N1)
[13] = read-out: EC50 values, A/California-like/2009 (H1N1)

| SMILES | decrease of PA expression [3] | EC50 (A/Hong Kong/X31 (H3N2); [10]) [µM] | EC50 [1, 11] [µM] | EC50 [2, 12] [µM] | effect on viral replication (PR8 virus) | CC50 (in vitro) [µM] | other results |
| --- | --- | --- | --- | --- | --- | --- | --- |
| CO/C1=C\C(C)=C\[C@@H](C)[C@@H](O)[C@@H](C)C/C(C)=C/C=C/[C@H](OC)[C@@H]([C@@H](C)[C@@H](O)[C@H](C)[C@@]2(O)C[C@@H](O)[C@H](C)[C@@H](C(C)C)O2)OC1=O [Bafilomycin A, bafilomycin A] | more than 90% |  |  |  |  |  | EC50 [1]: 0.004 µM; EC50 ([2]; read-out: EC50 values, A/California-like/2009 (H1N1), result as symbol): < 0.004 µM; CC50 (MDCK cells [4]; footnote c: [ ] in nM): 16.8 ± 9.02 nM |
| CCN(CC)Cc1cc(Nc2ccnc3cc(Cl)ccc23)ccc1O [Amodiaquine, amodiaquin dihydrochloride dihydrate] | 82% | 2.63 ± 0.9 | 2.76 ± 0.95 | 1.48 ± 0.92 | abrogate viral replication | 26.2 ± 8.43 | reduction of PR8 replication [1]: ~26%; inhibition of replication [5]: more than 60%; EC50 [6]: 1.25 to 2.5 µM; CC50 [7]: 53.6 ± 8.8 µM; effect on viral replication in growth kinetics assays (PR8 influenza virus): inhibited viral replication |
| C=C[C@H]1C[N@@]2CC[C@H]1C[C@H]2[C@H](O)c1ccnc2ccc(OC)cc12 [Quinine, Quinine sulfate] | more than 90% | 17.1 ± 8.7 | 9.1 ± 0.89 | 12.2 ± 8.49 | abrogate viral replication | 409 ± 82.2 | concentration needed to abrogate viral replication [1]: 50 µM; concentration needed to abrogate viral replication (PR8 virus): 60 µM |
| CCN(CC)CCCC(C)Nc1ccnc2cc(Cl)ccc12 (stereo not shown) [Chloroquine, chloroquine diphosphate salt] |  | 4.31 ± 0.96 | 0.61 ± 0.91 | 4.01 ± 0.8 | abrogate viral replication |  | inhibition of replication [5]: more than 60% |
| CCN(CC)CCCC(C)Nc1c2ccc(Cl)cc2nc2ccc(OC)cc12 (stereo not shown) [Quinacrine, quinacrine dihydrochloride] | more than 90% | 5.97 ± 0.91 | 2.96 ± 0.87 | 1.88 ± 0.87 |  | 14.6 ± 8.51 | inhibition of replication [5]: more than 60%; toxicity (MDCK cells [8]): no toxicity; cell death (MDCK cells [8]; dog): 10% |
| CCC(CC)O[C@@H]1C=C(C(=O)O)C[C@H](N)[C@H]1NC(C)=O [Oseltamivir carboxylate] |  |  |  |  |  |  | EC50 (A/Hong Kong/X31 (H3N2)): 0.00074 ± 8e-05 µM; reduction of PR8 replication [1]: approximately 30%; EC50 [1]: 0.05 µM and 0.0499 µM; EC50 [2, 13]: 0.103 ± 0.0321 µM; EC50 (PR8 virus): 0.313 µM; CC50 (MDCK cells [8]): > 1000 µM |
| CCN(CC)CCCCCCCCOC(=O)c1cc(OC)c(OC)c(OC)c1.Cl [TMB-8, TMB-8 hydrochloride] |  |  |  |  | completely inhibit viral replication |  | EC50 (A/Hong Kong/X31 (H3N2)): 21.7 ± 9.31 µM; inhibition of PR8 replication ([1]; 10 µM): 90%; EC50 [1]: 2.5 ± 0.91 µM; EC50 [2, 13]: 12.7 ± 8.65 µM; effect on PA gene expression [3]: almost completely abolished; cell death (MDCK cells [8]): 25%; toxicity (MDCK cells [8]): no significant toxicity; CC50 (MDCK cells [4]): 52300 ± 8380 nM |
| COc1cc(NC(C)CCCN)c2ncccc2c1 (stereo not shown) [Primaquine, primaquine diphosphate] | 62% | 29.5 ± 9.42 | 8.58 ± 0.89 | 28.6 ± 9.45 |  |  | inhibition of replication [5]: less than 20% |
| OC(c1cc(C(F)(F)F)nc2c(C(F)(F)F)cccc12)C1CCCCN1 (stereo not shown) [Mefloquine, mefloquine hydrochloride] | 82% | 6.66 ± 0.75 | 5.13 ± 0.87 |  |  | 22.9 ± 1.3 | EC50 ([2]; Influenza A virus, H1N1, MDCK, read-out: EC50 values, A/California-like/2009 (H1N1), result as symbol): > 22.9 µM |
| C=C[C@H]1C[N@@]2CC[C@H]1C[C@@H]2[C@@H](O)c1ccnc2ccc(OC)cc12 [Quinidine, quinidine anhydrous] | more than 90% | 19.8 ± 8.83 | 16.2 ± 8.9 | 5.11 ± 0.76 |  | 167 ± 94.2 | dose range at which IAV replication is inhibited [1]: ≥ 16.2 µM |
| CNc1ccc2oc(C[C@H]3O[C@@]4(CC[C@H]3C)O[C@H]([C@H](C)C(=O)c3ccc[nH]3)[C@H](C)C[C@H]4C)nc2c1C(=O)O [A23187 (calcimycin), calcimycin (A23187)] | 42% | 0.08 ± 0.01 | 0.08 ± 0.01 | 0.22 ± 0.01 | completely inhibit viral replication |  | CC50 at 2 days [9]: 0.413 ± 0.21 µM |
| CN(C)c1nc(N)c(C(=O)NC(=N)N)nc1Cl [5-(N,N-Dimethyl)amiloride hydrochloride, 5-(N,N-Dimethyl) amiloride hydrochloride] |  | 20.4 ± 8.62 | 31.1 ± 7.72 | 63.5 ± 5.77 |  |  | effect on PA gene expression [3]: almost completely abolished; inhibition of viral replication (PR8 virus): 80%; CC50 at 2 days (in vitro): 175 ± 10.2 µM |
| COc1ccc(CCN(C)CCCC(C#N)(c2ccc(OC)c(OC)c2)C(C)C)cc1OC (stereo not shown) [Verapamil, verapamil hydrochoride] |  | 19.6 ± 8.75 |  |  |  |  | EC50 [6]: 1.25 to 2.5 µM |
| COc1cc(CNC(=O)CCCC/C=C/C(C)C)ccc1O [Capsaicin, capsaicin] | approximately 48% | 55.2 ± 7.2 | 58.8 ± 8.32 | 44.7 ± 8.15 |  |  | CC50 at 2 days [9]: 157 ± 9.63 µM; toxicity (MDCK cells [4]; at 100 µM): no significant toxicity; cell death (MDCK cells [4]; at 200 µM): 50% |
